According to patent US20030186352A1, “Apicomplexan chorismate synthase sequences and an inhibitor of the shikimate pathway” (priority 1998, published 2003):
Values after ≈ are worked out from the molar mass of the structure shown.

Experiments:
C. parvum = C. parvum infection of MDBKF5D2 cell monolayers, immunofluorescence assay at 48 hours; format: cell-based, Cryptosporidium parvum; settings: for approximate 95% Cl count (mean parasite count per field): media alone ~1800
Method: C. parvum oocysts at 50,000/well were incubated at 37° C. (8% CO2) on confluent MDBKF5D2 cell monolayers in 96 well microtiter plates with the following concentrations of each drug. […] The level of infection of each well was determined and analyzed by an immunofluorescence assay at 48 hours using an antibody to C. parvum sporozoites made in rabbits at a concentration of 0.1%. Fluorescein-conjugated goat anti-rabbit antibody was used at a concentration of 1%.
C. parvum oocysts at 50,000/well were incubated with each drug (PRM=paromomycin which is the positive control, NPMG, gabaculine, SHAM, 8-hydroxyquinoline) at 37° C. (8% carbon dioxide) on confluent MDBKF5D2 cell monolayers in 96 well microtiter plates. The level of infection of each well was determined and analyzed by an immunofluorescence assay at 48 hours using as an antibody C. parvum sporozoite rabbit anti-serum (0.1%), and using fluorescein-conjugated goat anti-rabbit antibody (1%). Data are expressed as mean parasite count/field when 16 fields counted at 10× magnification “s.d. of the mean” (FIG. 6).

[1] = test system: human foreskin fibroblasts (HFF); test: Toxicity to human foreskin fibroblasts, tritiated thymidine uptake and microscopy; format: cell-based; settings: similar concentrations (20 mM)
Method: (§1) In these assays toxicity of a candidate inhibitor was assessed by its ability to prevent growth of human foreskin fibroblasts (HFF) after 4 days and after 8 days as measured by tritiated thymidine uptake and microscopic evaluation. Confluent monolayers of HFF were infected with tachyzoites and bradyzoites. Inhibitor was added one hour later. Non-toxic doses were used in parasite growth inhibition assays. Parasite growth was measured by ability to incorporate tritiated uracil during the last 18 hours of culture.
(§2) First the toxicity of gabaculine was assessed by its ability to prevent growth of human foreskin fibroblasts (HFF) as measured by ^3H-thymidine uptake and microscopic evaluation. Non-toxic doses were used in parasite growth inhibition assays. in vitro parasite growth inhibition assays included confluent monolayers of HFF infected with tachyzoites (RH) or mutant Me49 (R5). Gabaculine was added 1 hour later. Parasite growth was measured by the ability to incorporate 3H-uracil during the last 18 hours of culture. In addition, parasite growth was evaluated microscopically in Giemsa stained slides.
Inhibitor compounds are tested over a range of concentrations for toxicity against mammalian cells by assessing their ability to prevent cell growth as measured by tritiated thymidine uptake and inspection of the monolayer using microscopic evaluation. […]

[2] = test system: T. gondii tachyzoites (RH strain); test: T. gondii growth inhibition in HFF monolayers, tritiated uracil uptake; format: cell-based, Toxoplasma gondii
Method: The improvements are based on microscopic visual imspection of infected and inhibitor treated cultures, and on quantitation of nucleic acid synthesis of the parasite by measure intake of ^3H uracil onto the parasite's nucleic acid. Uracil is not utilized by mammalian cells. […] Only the RH strain tachyzoites, cultured for up to 72 hours, had been used in previously reported assays. The use of Me49, Ptg, and R5 mutant are unique aspects of the methods used in these assays in this invention.
as §1, §2
Confluent monolayers of HFF cells, grown in 96-well plates are infected with T. gondii tachyzoites of the RH strain and serial dilutions of anti-microbial compound are applied 1 hour later. T. gondii growth is assessed in these cultures by their ability to incorporate tritiated uracil (2.5 μCi/well) added during the last 18 hours of culture. After harvesting cells with an automatic cell harvester, uracil incorporation is measured by liquid scintillation.

P. falciparum = P. falciparum in vitro growth assay, clone not stated; format: cell-based, Plasmodium falciparum
Method: This assay is performed in folate deficient RPMI 1640 over a 66 hour incubation in plasma as described by Milhous et al. (1985). Both the W2 clone DHFR resistant phenotype and the D6 clone are used (Odula et al., 1988) (Table 3).

[3] = test system: mutant R5 strain of T. gondii; test: Growth of mutant R5 strain of T. gondii in HFF, uracil uptake over 8 days; format: cell-based, Toxoplasma gondii; settings: 20 mM gabaculine or P/S, 8 days in culture
Method: Improvements were developed in the assays reported by Mack et al. (1984) and Holfels et al. (1994) to measure T. gondii replication in tissue culture. The improvements are based on microscopic visual imspection of infected and inhibitor treated cultures, and on quantitation of nucleic acid synthesis of the parasite by measure intake of ^3H uracil onto the parasite's nucleic acid. Uracil is not utilized by mammalian cells. […]
First the toxicity of gabaculine was assessed by its ability to prevent growth of human foreskin fibroblasts (HFF) as measured by ^3H-thymidine uptake and microscopic evaluation. […] Parasite growth was measured by the ability to incorporate 3H-uracil during the last 18 hours of culture. In addition, parasite growth was evaluated microscopically in Giemsa stained slides.
This mutant strain is atovaquone resistant and posseses certain characterisitics of the tachyzoite stage and certain characteristics of the bradyzoite stage. T. gondii growth is measure by their ability to incorporate tritiated uracil and is expressed as counts/minute (CPM) on the Y-axis. […]

[4] = test system: D6 clone of Plasmodium falciparum; test: P. falciparum in vitro growth assay (Milhous et al.), D6 clone; format: cell-based; settings: Plasmodium falciparum, D6 clone
EPSP synthase = test: T. gondii EPSP synthase enzyme assay (HPLC detection of EPSP); format: biochemical; settings: 1 mM
Method: Assays for 4-aminobenzoate and 4-amino-4-deoxychorismate are performed as described previously.” Enzyme Assays: The 5-enolpyruvylshikimate-3-phosphate (EPSP) synthase assay entailed monitoring the generation of EPSP using HPLC. Reaction components were separated using a Hypersil H3APS2 HPLC column (Hichrom Limited, Reading, UK) and a NaH2PO4 elution gradient (50-400 mM). UV spectra (200-300 nm) of the colume eluate were collected to identify eluants. […] The peaks at 215 nm were integrated; the EPSP produced was quantified using a standard curve of authentic EPSP. Parasite extracts were produced at 4° C. by suspension of pure tachyzoites in extraction buffer (50 mM Tris.HCl, pH 7.5, containing complete TM protease inhibitor cocktail [Boehringer Mannheim, 1 tablet per 50 ml buffer]), sonication 3 times for 3 seconds at 30 second intervals, and centrifugation at 12000 g for 15 min. The resulting supernatant was diluted 6-fold with extraction buffer and loaded onto a ResourceQ column (1 ml, Pharmacia) equilibrated with extraction buffer. The bound protein was eluted in a single step using extraction buffer containing 500 mM Kcl. The eluted material was used for enzyme assay. The assay mix contained 1 mM phosphoenolpyruvate, 1 mM SP and 50 mM HEPES, pH 7.5. […] Protein concentrations of lysates were determined using the Lowry method. […]

[5] = test system: W2 clone of Plasmodium falciparum; test: P. falciparum in vitro growth assay (Milhous et al.), W2 clone; format: cell-based; settings: Plasmodium falciparum, W2

With NC1C=CC=C(C(=O)O)C1 (stereo not drawn) [gabaculine, 3-amino-2,3-dihydrobenzoic acid] as the compound, how does the “approximate 95% Cl count (mean parasite count per field)” value (C. parvum; gabaculine 0.2 μg/ml) read?
Its value is roughly 1300 count/field.

And the “approximate 95% Cl count (mean parasite count per field)” value (C. parvum; gabaculine 2 μg/ml)?
The value was roughly 600 count/field.

What about the “approximate 95% Cl count (mean parasite count per field)” value (C. parvum; gabaculine 20 μg/ml) of the same compound?
Its value is roughly 200 count/field.

And the “toxicity to the foreskin fibroblasts” value [1]?
Its value is “no toxicity”.

What about the “parasite growth over the 8 day time course” value ([2]; RH, 20 mM gabaculine or P/S, uracil CPM) of the same compound?
The value was “restricted”.

What about the inhibition at 5000 µM ([2]; Toxoplasma gondii, 96 h, gabaculine 5 mM, 4 days, medium about 36,000 CPM) of the same compound?
The inhibition at 5000 µM was roughly 60%.

What about the “restriction of CPM (tritiated uracil incorporation)” value ([2]; gabaculine 5 mM, 4 day assay, medium around 45,000 CPM) of the same compound?
Its value is “around 50%”.

What about the “counts (tritiated uracil incorporation)” value ([2]; gabaculine 20 mM, 4 days, medium around 45,000, no RH around 2,000 CPM) of the same compound?
The value was “about 5,000 CPM”.

And the IC50 (P. falciparum; Plasmodium falciparum)?
Its IC50 is no less than 45 µg/mL.

What about the “period over which parasite growth was restricted” value [3] of the same compound?
The value was “over the first 6 days of culture, after which a marked increase in parasite growth was detected”.

For O=C(O)CNCP(=O)(O)O [NPMG, N-(phosphonomethyl) glycine], which “product rescue by PABA of NPMG effect on C. parvum” value (C. parvum) is on record?
Its value is “not abrogated by PABA”.

What about the “approximate 95% Cl count (mean parasite count per field)” value (C. parvum; NPMG 0.45 μg/ml) of the same compound?
The value was roughly 1200 count/field.

And the “approximate 95% Cl count (mean parasite count per field)” value (C. parvum; NPMG 4.5 μg/ml)?
Its value is roughly 900 count/field.

What about the “approximate 95% Cl count (mean parasite count per field)” value (C. parvum; NPMG 0.045) of the same compound?
The value was roughly 1200 count/field.

What about the “restriction of CPM (tritiated uracil incorporation)” value ([2]; NPMG 3.12 mM, 4 day assay, medium around 72,000) of the same compound?
Its value is “around 60%”.

What about the “counts (tritiated uracil incorporation)” value ([2]; NPMG 4.5 mM, 4 days, medium around 72,000, no RH around 2,000 CPM) of the same compound?
The value was “about 12,000 CPM”.

And the “product rescue by PABA of NPMG inhibition of nucleic acid synthesis” value ([2]; PABA at increasing concentrations added to cultures)?
Its value is “PABA abrogates the inhibitory effects”.

And the inhibition at 4500 µM ([2]; Toxoplasma gondii, 96 h, NPMG 4.5 mM, 4 day assay, read-out: inhibition of parasite growth)?
The inhibition at 4500 µM was roughly 80%.

And the “product rescue of glyphosate inhibition of in vitro growth of asexual erythrocytic forms” value (P. falciparum; PABA and folate)?
Its value is “PABA and folate antagonism of growth inhibition”.

What about the IC50 ([4]; read-out: IC 50) of the same compound?
Its IC50 is 0.823 µg/mL (≈ 4.87 µM).

What about the IC90 ([4]; read-out: IC 90) of the same compound?
Its IC90 is 2.51 µg/mL (≈ 14.8 µM).

And the “inhibition of T. gondii EPSP synthase enzyme activity” value (EPSP synthase)?
The value was “inhibition of EPSP synthase enzyme activity”.

And the IC50 [5]?
Its IC50 is 1.72 µg/mL (≈ 10.1 µM).

And the IC90 [5]?
The IC90 was 3.4 µg/mL (≈ 20.1 µM).
